Experimental findings from the supplement of paper PMC10307832 are described below.

What all share (assay): relative viability (nuclei count vs DMSO), 5 days (fraction); higher = more cells survive
Compound in assay [1]: COc1cc(Nc2ncc(F)c(Nc3ccc4c(n3)NC(=O)C(C)(C)O4)n2)cc(OC)c1OC [R406] + C[C@]1(O)C[C@@H](c2nc(-c3ccc4ccc(-c5ccccc5)nc4c3)c3c(N)nccn32)C1 [Linsitinib] (partner 1 µM)
The essentials:
(§1)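 Cells from lung cancer lines were seeded into 1536-well plates and, one day later, dosed by pin tool. Treatments were either a single drug or a fixed dose of an anchor drug with five library-drug doses (not always all listed) in √10 steps. After 5 days, nuclei were stained in a one-step fixation (final 0.05% Triton X-100, 1% formaldehyde, 1 ug/ml Hoechst) and counted on 4× images, and relative viability is the treated-to-vehicle nuclei ratio, as the median of duplicate plates.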

Compound in assay [2]: COc1cc(Nc2ncc(F)c(Nc3ccc4c(n3)NC(=O)C(C)(C)O4)n2)cc(OC)c1OC [R406] + Cc1nc(Nc2ncc(C(=O)Nc3c(C)cccc3Cl)s2)cc(N2CCN(CCO)CC2)n1 [Dasatinib] (partner 0.075 µM)
In a few lines:
as §1

Compound in assay [3]: COc1cc(Nc2ncc(F)c(Nc3ccc4c(n3)NC(=O)C(C)(C)O4)n2)cc(OC)c1OC [R406] + Nc1nc2[nH]cc(CCc3ccc(C(=O)N[C@@H](CCC(=O)O)C(=O)O)cc3)c2c(=O)[nH]1 [Pemetrexed] (partner 0.2 µM)
The essentials:
as §1

Compound in assay [4]: O=C(/C=C/c1cccnc1)NCCCCC1CCN(C(=O)c2ccccc2)CC1 [Daporinad] + CS(=O)(=O)CCNCc1ccc(-c2ccc3ncnc(Nc4ccc(OCc5cccc(F)c5)c(Cl)c4)c3c2)o1 [Lapatinib] (partner 2 µM)
In a few lines:
as §1

For LCLC-103H, the relative viability turned out to be 1.04 in assay [1] (first compound 0.08 µM); 1.2 in assay [1] (first compound 0.253 µM); 0.976 in assay [1] (first compound 0.8 µM); 1.14 in assay [1] (first compound 2.53 µM); 0.792 in assay [1] (first compound 8 µM); 0.491 in assay [2] (first compound 0.08 µM). Further, the relative viability in assay [2] (first compound 0.253 µM) stood at 0.538; in assay [2] (first compound 0.8 µM), 0.539; in assay [2] (first compound 2.53 µM) it was 0.393; in assay [2] (first compound 8 µM) it was 0.26; in assay [3] (first compound 0.08 µM), 0.477; in assay [3] (first compound 0.253 µM) it was 0.462. The figures for the relative viability in assay [3] (first compound 0.8 µM), in assay [3] (first compound 2.53 µM) and in assay [3] (first compound 8 µM) were 0.486, 0.499 and 0.376, respectively.
Consider NCI-H441, for which the relative viability worked out at 0.377 in assay [1] (first compound 0.08 µM); 0.609 in assay [1] (first compound 0.253 µM); 0.662 in assay [1] (first compound 0.8 µM); 0.411 in assay [1] (first compound 2.53 µM); 0.47 in assay [1] (first compound 8 µM); 0.669 in assay [2] (first compound 0.08 µM). Also, the relative viability in assay [2] (first compound 0.253 µM) stood at 0.659; in assay [2] (first compound 0.8 µM), 0.851; in assay [2] (first compound 2.53 µM) it was 0.429; in assay [2] (first compound 8 µM) it was 0.318; in assay [3] (first compound 0.08 µM), 0.219; in assay [3] (first compound 0.253 µM) it was 0.261. Further, the figures for the relative viability in assay [3] (first compound 0.8 µM), in assay [3] (first compound 2.53 µM) and in assay [3] (first compound 8 µM) were 0.263, 0.257 and 0.234, respectively.
NCI-H522: the relative viability in assay [2] (first compound 0.08 µM) worked out at 0.78; in assay [2] (first compound 0.253 µM) it was 0.883; in assay [2] (first compound 0.8 µM) it was 0.869; in assay [2] (first compound 2.53 µM), 0.725; in assay [2] (first compound 8 µM), 0.722; in assay [3] (first compound 0.08 µM), 0.832. The relative viability turned out to be 1.04 in assay [3] (first compound 0.253 µM), 1.09 in assay [3] (first compound 0.8 µM), 0.937 in assay [3] (first compound 2.53 µM) and 0.747 in assay [3] (first compound 8 µM).
As to NCI-H727, the relative viability was found to be 0.252 in assay [1] (first compound 0.08 µM); 0.28 in assay [1] (first compound 0.253 µM); 0.319 in assay [1] (first compound 0.8 µM); 0.35 in assay [1] (first compound 2.53 µM); 0.237 in assay [1] (first compound 8 µM); 0.347 in assay [2] (first compound 0.08 µM). Besides, the relative viability stood at 0.432 in assay [2] (first compound 0.253 µM); 0.369 in assay [2] (first compound 0.8 µM); 0.3 in assay [2] (first compound 8 µM); 0.968 in assay [4] (first compound 0.0005 µM); 0.831 in assay [4] (first compound 0.001581 µM); 0.853 in assay [4] (first compound 0.005 µM). Further, the relative viability in assay [4] (first compound 0.01581 µM) is 0.76.
Regarding NCI-H1299, the relative viability in assay [1] (first compound 0.08 µM) is 0.979; in assay [1] (first compound 0.253 µM), 1.09; in assay [1] (first compound 0.8 µM) it was 1.13; in assay [1] (first compound 2.53 µM), 0.93; in assay [1] (first compound 8 µM) it was 0.496; in assay [4] (first compound 0.0005 µM), 0.956. The relative viability in assay [4] (first compound 0.001581 µM) was found to be 0.954; in assay [4] (first compound 0.005 µM), 0.955; in assay [4] (first compound 0.01581 µM), 1.05.
In the case of NCI-H1648, the relative viability in assay [3] (first compound 0.08 µM) came to 0.749; in assay [3] (first compound 0.253 µM), 0.727; in assay [3] (first compound 0.8 µM), 0.754; in assay [3] (first compound 2.53 µM), 0.675; in assay [3] (first compound 8 µM), 0.653.
NCI-H1650: the relative viability in assay [2] (first compound 0.08 µM) was 0.302; in assay [2] (first compound 0.253 µM) it was 0.362; in assay [2] (first compound 0.8 µM) it was 0.288; in assay [2] (first compound 2.53 µM) it was 0.16; in assay [2] (first compound 8 µM) it was 0.168; in assay [3] (first compound 0.08 µM) it was 0.355. In addition, the relative viability is 0.408 in assay [3] (first compound 0.253 µM); 0.37 in assay [3] (first compound 0.8 µM); 0.291 in assay [3] (first compound 2.53 µM); 0.358 in assay [3] (first compound 8 µM); 0.792 in assay [4] (first compound 0.0005 µM); 0.922 in assay [4] (first compound 0.001581 µM). Further, the figures for the relative viability in assay [4] (first compound 0.005 µM) and in assay [4] (first compound 0.01581 µM) were 0.95 and 0.875, respectively.
Take NCI-H1703: the relative viability in assay [1] (first compound 0.08 µM) came out at 0.742; in assay [1] (first compound 0.253 µM), 0.859; in assay [1] (first compound 0.8 µM), 0.695; in assay [1] (first compound 2.53 µM) it was 0.186; in assay [1] (first compound 8 µM), 0.139; in assay [4] (first compound 0.0005 µM), 1.39. In addition, the relative viability in assay [4] (first compound 0.001581 µM) was 1.22; in assay [4] (first compound 0.005 µM), 0.845; in assay [4] (first compound 0.01581 µM), 0.402.
Take NCI-H2170: the relative viability in assay [2] (first compound 0.08 µM) amounted to 0.481; in assay [2] (first compound 0.253 µM), 0.579; in assay [2] (first compound 0.8 µM) it was 0.613; in assay [2] (first compound 2.53 µM), 0.267; in assay [2] (first compound 8 µM) it was 0.324; in assay [3] (first compound 0.08 µM), 0.194. Also, the relative viability is 0.262 in assay [3] (first compound 0.253 µM); 0.238 in assay [3] (first compound 0.8 µM); 0.24 in assay [3] (first compound 2.53 µM); 0.221 in assay [3] (first compound 8 µM); 0.285 in assay [4] (first compound 0.0005 µM); 0.263 in assay [4] (first compound 0.001581 µM). The relative viability in assay [4] (first compound 0.005 µM) came to 0.274; in assay [4] (first compound 0.01581 µM), 0.276.
Turning to NCI-H2342, the relative viability in assay [2] (first compound 0.08 µM) was 0.309; in assay [2] (first compound 0.253 µM), 0.321; in assay [2] (first compound 0.8 µM), 0.341; in assay [2] (first compound 2.53 µM), 0.303; in assay [2] (first compound 8 µM), 0.277; in assay [3] (first compound 0.08 µM), 0.737. Moreover, the relative viability in assay [3] (first compound 0.253 µM) turned out to be 0.835; in assay [3] (first compound 0.8 µM) it was 0.862; in assay [3] (first compound 2.53 µM), 0.749; in assay [3] (first compound 8 µM), 0.774.
For SW 900, the relative viability in assay [2] (first compound 0.08 µM) came to 0.592; in assay [2] (first compound 0.253 µM), 0.384; in assay [2] (first compound 0.8 µM) it was 0.79; in assay [2] (first compound 2.53 µM) it was 0.23; in assay [2] (first compound 8 µM), 0.0973; in assay [3] (first compound 0.08 µM), 0.486. Moreover, the relative viability amounted to 0.486 in assay [3] (first compound 0.253 µM), 0.532 in assay [3] (first compound 0.8 µM), 0.129 in assay [3] (first compound 2.53 µM) and 0.0856 in assay [3] (first compound 8 µM).
